Reference: patent publication US10827754B2, “Fungicidal composition comprising a pyridylethylbenzamide derivative and a compound capable of inhibiting the ergosterol biosynthesis” (BAYER INTELLECTUAL PROPERTY GMBH, priority 2004, dated 2020)

Assays:
Format in all cases: in vivo
Puccinia recondita [1] = experiment: Example 10: efficacy against Puccinia recondita on wheat plants; settings: 240 h, alone, grading 10 days after contamination
Method: (§1) The active ingredients tested are prepared by potter homogenisation in a mixture of acetone/tween/water. This suspension is then diluted with water to obtain the desired active material concentration.
Wheat plants (Scipion variety) in starter cups, sown on 50/50 peat soil-pozzolana substrate and grown at 12° C., are treated at the 1-leaf stage (10 cm tall) by spraying with the aqueous suspension described above.
(§2) Plants, used as controls, are treated with an aqueous solution not containing the active material.
(§3) After 24 hours, the plants are contaminated by spraying the leaves with an aqueous suspension of Puccinia recondita spores (100,000 spores per ml). The spores are collected from a 10-day-old contaminated wheat and are suspended in water containing 2.5 ml/l of tween 80 10%. The contaminated wheat plants are incubated for 24 hours at 20° C. and at 100% relative humidity, and then for 10 days at 20° C. and at 70% relative humidity. Grading is carried out 10 days after the contamination, in comparison with the control plants.

Botrytis cinerea [2] = experiment: Example 13: efficacy against Botrytis cinerea on gherkin plants, formulated compounds; settings: alone, grading 5 to 7 days after contamination
Method: (§4) The formulated compounds are diluted with water to obtain the desired active material concentration.
(§5) Gherkin plants (Petit vert de Paris variety) in starter cups, sown on a 50/50 peat soil-pozzolana substrate and grown at 18-20° C., are treated at the cotyledon Z11 stage by spraying with the aqueous suspension described above. Plants, used as controls, are treated with an aqueous solution not containing the active material.
(§6) After 24 hours, the plants are contaminated by depositing drops of an aqueous suspension of Botrytis cinerea spores (150,000 spores per ml) on upper surface of the leaves. The spores are collected from a 15-day-old culture and are suspended in a nutrient solution composed of: • 20 g/L of gelatine • 50 g/L of cane sugar • 2 g/L of NH4NO3 • 1 g/L of KH2PO4
(§7) The contaminated gherkin plants are settled for 5/7 days in a climatic room at 15-11° C. (day/night) and at 80% relative humidity. Grading (% of efficacy) is carried out 5 to 7 days after the contamination, in comparison with the control plants.

Botrytis cinerea [3] = experiment: Example 9: efficacy against Botrytis cinerea on gherkin plants, formulated compounds; settings: alone, grading 5 to 7 days after contamination
Method: as §4, §5, §6, §7

[4] = test system: Mycosphaerella graminicola; experiment: Example 12: efficacy against Mycosphaerella graminicola on wheat plants, formulated compounds; settings: Zymoseptoria tritici
Method: (§8) The formulated compounds are diluted with water to obtain the desired active material concentration
(§9) Wheat plants (Scipion variety), sown on a 50/50 peat soil-pozzolana substrate in starter cups and grown at 12° C., are treated at the 1-leaf stage (10 cm tall) by spraying with the aqueous suspension described above. Plants, used as controls, are treated with an aqueous solution not containing the active material.
(§10) After 24 hours, the plants are contaminated by spraying them with an aqueous suspension of Mycosphaerella graminicola spores (500 000 spores per ml). The spores are collected from a 7-day-old culture. The contaminated wheat plants are incubated for 72 hours at 18° C. and at 100% relative humidity, and then for 21 to 28 days at 90% relative humidity.
(§11) Grading (% of efficacy) is carried out 21 to 28 days after the contamination, in comparison with the control plants.

Sphaerotheca fuliginea = experiment: Example 11: efficacy against Sphaerotheca fuliginea on gherkin plants, formulated compounds; settings: Podosphaera fuliginea, 504 h, alone, grading 21 days after contamination
Method: as §8
Gherkin plants (Vert petit de Paris variety) in starter cups, sown on a 50/50 peat soil-pozzolana substrate and grown at 20° C./23° C., are treated at the 2-leaves stage by spraying with the aqueous suspension described above. Plants, used as controls, are treated with an aqueous solution not containing the active material.
After 24 hours, the plants are contaminated by spraying them with an aqueous suspension of Sphaerotheca fuliginea spores (100 000 spores per ml). The spores are collected from a contaminated plants. The contaminated gerkhin plants are incubated at about 20° C./25° C. and at 60/70% relative humidity.
Grading (% of efficacy) is carried out 21 days after the contamination, in comparison with the control plants.

[5] = test system: Erysiphe graminis f sp. tritici; experiment: Example 7: efficacy against Erysiphe graminis on wheat plants, formulated compounds; settings: Blumeria graminis, alone, grading 7 to 14 days after contamination
Method: The formulated compounds are diluted with water to obtain the desired active material concentration. Wheat plants (Audace variety) in starter cups, sown on 50/50 peat soil-pozzolana substrate and grown at 12° C., are treated at the 1-leaf stage (10 cm tall) by spraying with the aqueous suspension described above.
as §2
After 24 hours, the plants are contaminated by dusting them with Erysiphe graminis f sp. tritici spores, the dusting being carried out using diseased plants. Grading is carried out 7 to 14 days after the contamination, in comparison with the control plants.

Botrytis cinerea [6] = experiment: Example 16: efficacy against Botrytis cinerea on gherkin plants, formulated compounds; settings: alone, grading 5 to 7 days after contamination
Method: as §4, §5, §6, §7

Botrytis cinerea [7] = experiment: Example 15: efficacy against Botrytis cinerea on gherkin plants, formulated compounds; settings: read-out: % Efficacy
Method: as §4, §5, §6, §7

[8] = test system: Erysiphe graminis f sp. tritici; experiment: Example 4: efficacy against Erysiphe graminis on wheat plants, formulated compounds; settings: Blumeria graminis, alone, grading 7 to 14 days after contamination
Method: The formulated (concentrated suspension) compounds are diluted with water to obtain the desired active material concentration Wheat plants (Audace variety) in starter cups, sown on 50/50 peat soil-pozzolana substrate and grown at 12° C., are treated at the 1-leaf stage (10 cm tall) by spraying with the aqueous suspension described above.
as §2
(§12) After 24 hours, the plants are contaminated by dusting them with Erysiphe graminis f sp. tritici spores, the dusting being carried out using diseased plants.
(§13) Grading is carried out 7 to 14 days after the contamination, in comparison with the control plants.

[9] = test system: Erysiphe graminis f sp. tritici; experiment: Example 17: efficacy against Erysiphe graminis on wheat plants, formulated compounds; settings: Blumeria graminis, alone, grading 7 to 14 days after contamination
Method: The formulated compounds (Compound 1 and a mix of spiroxamine (300 g/l) and prothioconazole (160 g/l) are diluted with water to obtain the desired active material concentration Wheat plants (Audace variety) in starter cups, sown on 50/50 peat soil-pozzolana substrate and grown at 12° C., are treated at the 1-leaf stage (10 cm tall) by spraying with the aqueous suspension described above.
as §2, §12, §13

[10] = test system: Erysiphe graminis f sp. tritici; experiment: Example 14: efficacy against Erysiphe graminis on wheat plants, formulated compounds; settings: Blumeria graminis, alone, grading 7 to 14 days after contamination
Method: The formulated compounds are diluted with water to obtain the desired active material concentration Wheat plants (Audace variety) in starter cups, sown on 50/50 peat soil-pozzolana substrate and grown at 12° C., are treated at the 1-leaf stage (10 cm tall) by spraying with the aqueous suspension described above.
as §2, §12, §13

Puccinia recondita [11] = experiment: Example 8: efficacy against Puccinia recondita on wheat plants, formulated compounds; settings: 240 h, alone, grading 10 days after contamination
Method: The formulated compounds are diluted with water to obtain the desired active material concentration Wheat plants (Scipion variety) in starter cups, sown on 50/50 peat soil-pozzolana substrate and grown at 12° C., are treated at the 1-leaf stage (10 cm tall) by spraying with the aqueous suspension described above.
as §2, §3

[12] = test system: Mycosphaerella graminicola; experiment: Example 1: efficacy against Mycosphaerella graminicola on wheat plants, spray 24 h before contamination; settings: Zymoseptoria tritici, alone, grading 21 to 28 days after contamination
Method: as §1, §9, §10, §11

Botrytis cinerea [13] = experiment: Example 6: efficacy against Botrytis cinerea on gherkin plants; settings: alone, grading 5 to 7 days after contamination
Method: as §1, §5, §6, §7

Botrytis cinerea [14] = experiment: Example 5: efficacy against Botrytis cinerea on gherkin plants; settings: alone, grading 5 to 7 days after contamination
Method: as §1, §5, §6, §7

Botrytis cinerea [15] = experiment: Example 3: efficacy against Botrytis cinerea on gherkin plants, spray 24 h before contamination; settings: alone, grading 5 to 7 days after contamination
Method: as §1, §5, §6, §7

[16] = test system: Erysiphe graminis f sp. tritici; experiment: Example 2: efficacy against Erysiphe graminis on wheat plants, spray 24 h before contamination; settings: Blumeria graminis, alone, grading 7 to 14 days after contamination
Method: as §1
Wheat plants (Audace variety) in starter cups, sown on 50/50 peat soil-pozzolana substrate and grown at 12° C., are treated at the 1-leaf stage (10 cm tall) by spraying with the aqueous suspension described above.
as §2, §12, §13

CC(C)(C)C(O)C(Oc1ccc(Cl)cc1)n1cncn1 (stereo not drawn) [Triadimenol, reference compound]
Emax at 250 g/ha (Puccinia recondita [1]): 50%

CC(Cc1ccc(C(C)(C)C)cc1)CN1C[C@@H](C)O[C@@H](C)C1 (stereo partly drawn) [Fenpropimorph, reference compound]
Emax at 62.5 g/ha (Botrytis cinerea [2]): 10%
Emax at 125 g/ha (Botrytis cinerea [2]; dose 125 g/ha): 30%

CCCCC(C#N)(Cn1cncn1)c1ccc(Cl)cc1 (stereo not drawn) [Myclobutanil, reference compound]
Emax at 333 ppm (Botrytis cinerea [3]; dose 333 ppm): 0%

O=C(NCCc1ncc(C(F)(F)F)cc1Cl)c1ccccc1C(F)(F)F [Compound 1, N-{2-[3-chloro-5-(trifluoromethyl)-2-pyridinyl]ethyl}-2-trifluoromethylbenzamide]
Emax at 62.5 g/ha ([4]; dose 62.5 g/ha, alone, wheat, grading 21 to 28 days after contamination): 77%
Emax at 4.1 ppm (Sphaerotheca fuliginea; dose 4.1 ppm): 28%
Emax at 250 g/ha ([5]; dose 250 g/ha): 40%
Emax at 12.3 ppm (Botrytis cinerea [6]; dose 12.3 ppm): 5%
Emax at 31.2 g/ha (Botrytis cinerea [2]; dose 31.2 g/ha): 20%
Emax at 62.5 g/ha (Botrytis cinerea [2]): 30%
Emax at 37 ppm (Botrytis cinerea [7]; dose 37 ppm, alone, gherkin, grading 5 to 7 days after contamination): 50%
Emax at 62.5 g/ha ([8]; dose 62.5 g/ha): 10%
Emax at 125 g/ha [9]: 0%
Emax at 12.3 ppm (Botrytis cinerea [3]; dose 12.3 ppm): 0%
Emax at 37 ppm (Botrytis cinerea [3]; dose 37 ppm): 50%
Emax at 500 g/ha ([10]; dose 500 g/ha): 44%
Emax at 250 g/ha (Puccinia recondita [1]): 0%
Emax at 62.5 g/ha (Puccinia recondita [11]; dose 62.5 g/ha): 0%
Emax at 250 g/ha (Puccinia recondita [11]; dose 250 g/ha): 0%
Emax at 15 g/ha [12]: 25%
Emax at 31 g/ha [12]: 65%
Emax at 4 ppm (Botrytis cinerea [13]; dose 4 ppm): 10%
Emax at 37 ppm (Botrytis cinerea [14]; dose 37 ppm): 0%
Emax at 111 ppm (Botrytis cinerea [14]): 80%
Emax at 12 ppm (Botrytis cinerea [15]; dose 12 ppm): 0%
Emax at 37 ppm (Botrytis cinerea [15]): 30%
Emax at 111 ppm (Botrytis cinerea [15]): 80%
Emax at 62.5 g/ha ([16]; dose 62.5 g/ha): 0%
Emax at 125 g/ha [16]: 20%

CCCC1COC(Cn2cncn2)(c2ccc(Cl)cc2Cl)O1 (stereo not drawn) [Propiconazole, reference compound]
Emax at 37 ppm (Botrytis cinerea [15]): 30%
Emax at 111 ppm (Botrytis cinerea [15]): 50%
Emax at 333 ppm (Botrytis cinerea [15]; dose 333 ppm): 70%

CC1(C(=O)Nc2ccc(O)c(Cl)c2Cl)CCCCC1 [Fenhexamid, reference compound]
Emax at 37 ppm (Sphaerotheca fuliginea; dose 37 ppm): 35%

O=CNC(N1CCN(C(NC=O)C(Cl)(Cl)Cl)CC1)C(Cl)(Cl)Cl (stereo not drawn) [Triforine]
Emax at 37 ppm (Botrytis cinerea [7]): 0%
Emax at 111 ppm (Botrytis cinerea [7]): 15%

CC(C)(C)C(O)(CCc1ccc(Cl)cc1)Cn1cncn1 (stereo not drawn) [Tebuconazole, reference compound]
Emax at 15 g/ha [12]: 15%
Emax at 31 g/ha [12]: 15%

Fc1ccc([C@]2(Cn3cncn3)O[C@H]2c2ccccc2Cl)cc1 (racemic) [Epoxiconazole, reference compound]
Emax at 15.6 g/ha (Puccinia recondita [11]; dose 15.6 g/ha): 25%

CCCN(CCOc1c(Cl)cc(Cl)cc1Cl)C(=O)n1ccnc1 [Prochloraz, reference compound]
Emax at 250 g/ha ([4]; read-out: % Efficacy): 54%

CC(C1CC1)C(O)(Cn1cncn1)c1ccc(Cl)cc1 (stereo not drawn) [Cyproconazole, reference compound]
Emax at 31.2 g/ha ([8]; dose 31.2 g/ha): 15%

CC1(C)CCC(Cc2ccc(Cl)cc2)C1(O)Cn1cncn1 (stereo not drawn) [Metconazole, reference compound]
Emax at 31.2 g/ha ([5]; dose 31.2 g/ha): 50%

CCCCC(O)(Cn1cncn1)c1ccc(Cl)cc1Cl (stereo not drawn) [Hexaconazole, reference compound]
Emax at 111 ppm (Botrytis cinerea [13]; dose 111 ppm): 15%

CC1COC(Cn2cncn2)(c2ccc(Oc3ccc(Cl)cc3)cc2Cl)O1 (stereo not drawn) [Difenconazole, reference compound]
Emax at 111 ppm (Botrytis cinerea [14]): 15%
Emax at 333 ppm (Botrytis cinerea [14]; dose 333 ppm): 25%

CCCN(CC)CC1COC2(CCC(C(C)(C)C)CC2)O1 (stereo not drawn) [Spiroxamine, reference compound]
Emax at 125 g/ha ([10]; dose 125 g/ha): 0%

CC(C)(C)C(O)C(Oc1ccc(-c2ccccc2)cc1)n1cncn1 (stereo not drawn) [Bitertanol, reference compound]
Emax at 333 ppm (Botrytis cinerea [6]; dose 333 ppm): 0%

OC(Cc1ccccc1Cl)(Cn1nc[nH]c1=S)C1(Cl)CC1 (stereo not drawn) [Prothioconazole, reference compound]
Emax at 125 g/ha [16]: 0%
Emax at 250 g/ha ([16]; dose 250 g/ha): 60%
